# Data taken from patent publication US11850237B2, “Compounds and methods for treating influenza” (priority 2009, dated 2023).
# Read-outs that look alike come from different tables or passages of the source.
# What was measured:
# [1] = test system: human low-density lipoprotein receptor (LDLR); test: Plasma membrane targeting of LDLR in transfected MDCK cells; assay type: cell-based; details: LDLR-A18-GFP transfected MDCK cells, TIZ 10 μg/ml for 16 h
# From the text: For transfection experiments, MDCK cells plated in LabTekII coverglass chambers (Nunch-Thermo Fisher Scientific Inc.) were transiently transfected with green fluorescent protein (GFP)-tagged internalization-defective human low-density lipoprotein receptor (hLDLR) mutant (LDLR-A18-GFP plasmid, kindly provided by E. Rodriguez-Boulan, Cornell University New York, NY), using Lipofectamine 2000 (Invitrogen) according to the manufacturer's instructions.
# For detection of plasma membrane targeting of human low-density lipoprotein receptor (hLDLR), MDCK cells plated in coverglass chambers were transiently transfected with GFPtagged internalization-defective hLDLR mutant (LDLR-A18-GFP plasmid) and, after 8 h, treated with TIZ (10 μg/ml) or vehicle for the following 16 h. After blocking protein synthesis with 100 μg/ml cycloheximide (Sigma-Aldrich) for 1 h, plasma membranes were stained using CellMask™ Orange plasma membrane stain (Molecular Probes, Invitrogen). After staining, cells were examined using a Leica DM-IL fluorescence microscope equipped with UV excitation filters. The images were captured with a Leica DC-300 camera using Leica Image-Manager500 software.
# [2] = test system: H3N2 A/Firenze/7/03 (A/FI); assay type: cell-based, influenza A virus; details: MDCK cells, 10 μg/ml TIZ
# [3] = test system: H5N9 low-pathogenicity avian strain A/Ck/It/9097/97 (A/Ck); test: microbe, parasite or virus in culture; assay type: cell-based; details: Influenza A virus, H5N9, MDCK, 24 h, read-out: EC50, inhibition of virus replication
# [4] = test system: viral hemagglutinin (HA0); assay type: cell-based, influenza A virus
# [5] = biological target: viral hemagglutinin (HA0) (Influenza A virus, UniProt P03452); assay type: cell-based
# Chain of viral hemagglutinin (HA0) (Influenza A virus, UniProt P03452) (P03452 18-565 limits assumed): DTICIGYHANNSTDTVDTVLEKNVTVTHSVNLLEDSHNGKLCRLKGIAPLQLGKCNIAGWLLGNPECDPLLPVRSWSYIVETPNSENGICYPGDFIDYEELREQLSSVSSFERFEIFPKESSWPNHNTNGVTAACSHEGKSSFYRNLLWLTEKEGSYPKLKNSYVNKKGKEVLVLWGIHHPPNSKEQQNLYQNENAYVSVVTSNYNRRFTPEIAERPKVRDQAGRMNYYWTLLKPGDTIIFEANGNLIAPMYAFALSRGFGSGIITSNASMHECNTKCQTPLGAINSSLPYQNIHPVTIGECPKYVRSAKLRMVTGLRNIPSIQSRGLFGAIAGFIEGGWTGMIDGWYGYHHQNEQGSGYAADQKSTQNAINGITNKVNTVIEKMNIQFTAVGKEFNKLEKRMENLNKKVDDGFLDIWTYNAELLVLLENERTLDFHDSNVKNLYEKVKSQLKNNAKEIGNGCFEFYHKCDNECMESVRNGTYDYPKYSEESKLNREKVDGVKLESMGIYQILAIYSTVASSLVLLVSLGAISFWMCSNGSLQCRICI
# A/WSN/33 (WSN) = test: microbe, parasite or virus in culture; assay type: cell-based; details: Influenza A virus, MDCK, 24 h, read-out: EC50, inhibition of virus replication
# [6] = test system: influenza B virus, B/Parma/3/04; assay type: cell-based; details: B/Parma/3/04 influenza B, MDCK cells, 10 μg/ml TIZ
# [7] = test system: influenza A virus (PR8 in U937 and Jurkat, WSN in A549 cells); test: Influenza A virus replication in human cells (U937, Jurkat, A549); assay type: cell-based; details: monocytic U937, T-lymphocytic Jurkat and alveolar type II-like A549 cells, read-out: EC50, inhibition of influenza A virus replication in human cells
# MDCK cells [8] = test: Host protein synthesis, eIF2α phosphorylation and Grp78/BiP in MDCK cells; assay type: cell-based, canine
# Protocol: Metabolic labeling, analysis of protein synthesis and Western Blot Mock-infected or influenza virus-infected cells were labeled with 10 μCi/ml of [35S]-methionine-cysteine ([35S]-Met/Cys, Redivue Pro-Mix 35S in vitro cell-labeling mix; GE Healthcare) for the indicated times after 30 min. starvation in methionine/cysteine-free medium. For pulse/chase experiments, cells were labeled [35S]-Met/Cys (100 μCi/ml) for 15 min., after 30 min. starvation in methionine/cysteine-free medium. At the end of pulse, cells were chased in complete medium containing 10 mM cold methionine and 1 mM cycloheximide for different times in the absence or presence of TIZ. The pulse/chase were terminated by placing the cells on ice. After cell lysis in RIPA buffer (150 mM NaCl, 10 mM Tris-HCl pH 7.5, 4 mM EDTA, 1% Triton X-100, 600 mM KCl), containing 1 mM phenylmethylsulphonyl fluoride (PMSF) and a protease inhibitor cocktail (PIC; Roche Diagnostics GmbH), samples containing the same amount of radioactivity were separated by SDS/PAGE (3% stacking gel, 10% resolving gel) and processed for autoradiography, as described. Autoradiographic patterns were visualized and quantified in Typhoon-8600 Imager (Molecular Dynamics, Amersham Pharmacia Biotech) and images were acquired using ImageQuant software (Amersham Pharmacia Biotech) (MDP analysis).
# For Western blot analysis, cells were lysed with cold high-salt extraction (HSB) buffer containing 2 mM dithiothreitol (DTT), 1 mM PMSF, 1 mM orthovanadate, 20 mM β-glycerophosphate, 1 mM p-nitrophenyl phosphate (pNPP) and PIC, or with RIPA buffer, containing 1 mM PMSF and PIC. […] Quantitative evaluation of proteins was determined by Versadoc-1000 analysis using the Quantity One software program, available through BIO-RAD Laboratories.
# MDCK cells [9] = test: Toxicity / cell viability by MTT in uninfected MDCK cells; assay type: cell-based, canine; details: MDCK cells, MTT
# Protocol: (§1) Cell culture, treatment and transfection-Madin-Darby canine kidney (MDCK) cells, and human A549 alveolar type II-like epithelial, Jurkat Tlymphoblastoid and U397 monocytic leukemia cells were grown at 37° C. in a 5% CO2 atmosphere in RPMI 1640 (Invitrogen), supplemented with 10% fetal calf serum (FCS), 2 mM glutamine and antibiotics. Test compounds were added immediately after 1-hour adsorption period, and kept in the culture medium for the entire time of the experiment, unless differently specified. […] Cell viability was determined by the 3-(4,5-dimethylthiazol-2-yl)-2,5-diphenyltetrazolium bromide (MTT) to MTT formazan conversion assay (Sigma-Aldrich) as described previously. Microscopical examination of mock-infected or virus-infected cells was performed using a Leica DM-IL microscope and images were captured on a Leica DC 300 camera using Leica Image-Manager500 software.
# [10] = as above; assay type: cell-based, canine; details: dog, uninfected MDCK cells; uninfected cells
# Protocol: as §1
# H1N1 A/PR/8/34 (PR8) = test: microbe, parasite or virus in culture; assay type: cell-based, influenza A virus
# PR8 virus = assay type: cell-based, influenza A virus
smiles,measurement,setting,value
"O=C(Nc1ncc([N+](=O)[O-])s1)c1ccccc1O [Compound 2, tizoxanide]",plasma membrane targeting of LDLR,[1],did not inhibit plasma membrane targeting of LDLR
same,inhibition of virus replication,[2],very effective
same,EC50,[3],0.5 µg/mL
same,viral proteins in purified virions from supernatant,"[4]; PR8-infected cells, 24 h p.i.",could not be detected
same,HA0 maturation in other host cells and strains,"[4]; WSN in A549 cells, A/Ck and PR8 in MDCK cells",able to inhibit HA0 maturation
same,Endo-H sensitivity of HA0,[5],remained sensitive to digestion
same,"HA0 glycosylation (glucosamine, mannose incorporation)",[5],did not decrease glucosamine and actually increased mannose incorporation
same,HA0 trimer formation,[5],did not prevent HA0 ability to form trimers
same,change in influenza virus protein synthesis pattern (HA0 band),[5],disappearance of a band of approximately 79 kDa
same,intracellular HA0 levels / accumulation,[5],did not reduce intracellular HA0 levels
same,plasma membrane levels of viral hemagglutinin,[5],dramatically decreased
same,EC50,A/WSN/33 (WSN),0.5 µg/mL
same,inhibition of virus replication,[6],very effective
same,EC50,[7],0.3 µg/mL
same,expression of Grp78/BiP (unfolded protein response marker),MDCK cells [8]; MDCK cells,did not induce the expression
same,host protein synthesis,"MDCK cells [8]; [35S]-Met/Cys incorporation, 10 μg/ml TIZ",did not inhibit host protein synthesis
same,phosphorylation of eukaryotic initiation factor 2α (eIF2-α),MDCK cells [8]; uninfected or PR8-infected cells,did not affect phosphorylation
same,Toxicity LD50 (MTT),MDCK cells [9],>50 µg/mL
same,CC50,[10],> 50 µg/mL
same,effect on virus replication under multi- and single-step virus growth,"H1N1 A/PR/8/34 (PR8); H1N1 PR8, MDCK cells, 10 μg/ml TIZ, m.o.i. 10 or 0.001 ffu/cell",dramatic block
same,EC50,"H1N1 A/PR/8/34 (PR8); Influenza A virus, MDCK, 24 h, read-out: EC50, inhibition of virus replication",1 µg/mL
same,EC50,"H1N1 A/PR/8/34 (PR8); Influenza A virus, PR8, MDCK cells, read-out: Virus Yield EC50",1 µg/mL
same,EC90,"H1N1 A/PR/8/34 (PR8); Influenza A virus, PR8, MDCK cells, read-out: Virus Yield EC90",9 µg/mL
same,"antiviral activity against PR8, overall rating","H1N1 A/PR/8/34 (PR8); PR8 influenza A virus, Table 1",potent and selective
same,effect on influenza virus replication,PR8 virus,had no effect
same,time after infection for which a single administration inhibits virus replication,"PR8 virus; single administration after virus adsorption, 10 μg/ml, PR8, MDCK cells",at least 48 h
same,effect on virus replication,PR8 virus; treatment of cells only during the adsorption period,did not inhibit virus replication
